System: CHO cells
Assay: In vitro MTT toxicity screen
Type: cell-based, Chinese hamster
Conditions: 10 μM, compared to positive control group (10% DMSO)
Procedure: The toxicity of the compounds of the present invention at a concentration of 10 μM has been explored using the tetrazolium salt (MTT) method in CHO cells. The MTT method involving conversion of MTT to colored formazan by cells serves as an indirect measurement of cell growth/cell kill, as reported by several groups (Paimela, T. et al. Mol Vis 2012; 18: 1189-96; Hansen, M. B. et al. J Immunol Methods 1989, 119(2): 203-10).
In the MTT assay, cytotoxicity is correlated with the color of MTT and is measured with a spectrophotometer at the wavelength of 570 nm. Briefly, fresh MTT solution (10 mg/mL in 1×PBS) was added (1:20 volume of medium) and the cells were incubated for 1.5 hours. The cells were lysed and purple formazan was dissolved into the solution by overnight incubation with MTT lysis buffer (20% SDS, 50% N,N-dimethylformamide, 2% acetic acid, 25 mM HCl; the volume of medium+volume of MTT salt solution).

SMILES: CNCCC(Oc1ccc(CCO)cc1)c1ccccc1.Cl (single isomer, unassigned) [Example 2, 2-[4-[3-(Methylamino)-1-phenylpropoxy]phenyl]ethanol hydrochloride]
- cell viability (MTT): 100%
